Read-outs that look alike come from different tables or passages of the source.
How the values were obtained:
endogenous NAMPT = target: T1, endogenous NAMPT (Homo sapiens, UniProt P43490); assay: Cellular NAD+ modulation assay in neuroblastoma SH-SY5Y cells; type: cell-based
T1 construct: stimulate the endogenous NAMPT in a native cellular environment; endogenous in cells; host or cells: SH-SY5Y neuroblastoma cells
Description: The compounds described herein were also assayed for their ability to stimulate the endogenous NAMPT in a native cellular environment in the cellular NAD+ modulation assay, which measures the ability of the compound to modulate cellular NAD levels. Increased levels of NAD are expected by compounds that permeate the cells and activate the catalytic activity of the endogenous NAMPT.
Neuroblastoma SH-SY5Y cells were grown in 1:1 mixture of Eagle's Minimum Essential Medium and F12 Medium, along with 10% fetal bovine serum, in a humidified incubator with an atmosphere of 95% air and 5% CO2 at 37° C. The assays were initiated by plating 20 μL of SH-SY5Y cells in culture medium with 0.1% fetal bovine serum, at a density of 5000 cells per well to a 384-well Corning™ BioCoat™ Poly-D-Lysine Multiwell Plates. The plates were incubated in the 37° C. incubators for a period of 5 hours. Compounds in DMSO were added to the plates in a volume of 120 nL using the Labcyte Echo Liquid Handlers. […] The plates are then incubated for 40 hours. 30 μL of a readout-solution containing 0.2 U/mL Diaphorase enzyme, 40 uM resazurin, 10 uM FMN, 0.8 U/mL Alcohol dehydrogenase, 3% ethanol, 0.4 mg/mL bovine serum albumin, 0.2% Triton X-100 in 100 mM Tris-HCl, 30 mM EDTA, pH 8.4. The plates were read for fluorescence (Excitation/Emission=540 nm/590 nm) using an EnVision plate reader after 60 mins of incubation at ambient temperature.

human NAMPT = human NAMPT (Homo sapiens, UniProt P43490); assay: Human recombinant enzyme assay (NMN fluorescence biochemical assay, activation of NAMPT)
human NAMPT, sequence (P43490 whole entry): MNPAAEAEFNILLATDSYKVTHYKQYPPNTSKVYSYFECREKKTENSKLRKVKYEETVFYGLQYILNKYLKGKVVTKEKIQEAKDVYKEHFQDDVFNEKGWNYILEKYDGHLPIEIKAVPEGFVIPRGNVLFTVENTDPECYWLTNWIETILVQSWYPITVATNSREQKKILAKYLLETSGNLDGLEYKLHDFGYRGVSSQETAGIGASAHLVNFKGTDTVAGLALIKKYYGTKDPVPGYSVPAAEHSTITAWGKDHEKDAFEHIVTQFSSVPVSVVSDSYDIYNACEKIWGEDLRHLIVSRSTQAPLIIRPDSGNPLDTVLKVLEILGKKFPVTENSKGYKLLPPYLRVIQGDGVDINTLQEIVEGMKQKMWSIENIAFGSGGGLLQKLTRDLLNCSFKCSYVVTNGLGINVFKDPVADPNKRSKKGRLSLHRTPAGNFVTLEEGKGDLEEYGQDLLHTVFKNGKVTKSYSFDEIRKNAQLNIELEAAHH
In short: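 Activation of recombinant human NAMPT (6 nM) with 2.5 mM ATP, 20 μM PRPP and 150 μM nicotinamide in 50 mM HEPES pH 7.2, 1 mM DTT, 1 mM CHAPS, 50 mM NaCl, 100 mM MgCl2; 60 min, ambient temperature. NMN formed was derivatized with acetophenone/KOH/formic acid, fluorescence read at 355/460 nm after 40 min.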

[1] = Table B, SH-SY5Y cells, cellular NAD levels, doxorubicin, 40 hours
[2] = Table B, SH-SY5Y cells, cellular NAD levels, doxorubicin, 40 hours, read-out: EC50
[3] = Table A, human recombinant NAMPT, NMN formation, 60 min
[4] = Table A, human recombinant NAMPT, NMN formation, 60 min, read-out: EC50 Human

T1 sequence (P43490 whole entry): as above

Row | Structure (SMILES) | EC50 (endogenous NAMPT) | EC50 (human NAMPT) | AC0.3 (endogenous NAMPT; [1]) | EC50 (endogenous NAMPT; [2]) | AC1.4 Human (human NAMPT; [3]) | EC50 (human NAMPT; [4])
1 | CC(C)(O)CN1CCN(C(=O)[C@H]2C[C@@]3(C[C@H](NC(=O)NCc4ccc(Cl)cc4)C3)C2)CC1 (single isomer, unassigned) [Compound 187] | 0.2 µM | 0.6 µM | – | – | – | –
2 | COc1ccc(CNC(=O)NC2CC3(C2)CC(C(=O)N(C)C2CCOC2)C3)cc1 (stereo in doubt) [Compound 79, (R)-6-(3-(4-methoxybenzyl)ureido)-N-methyl-N-(tetrahydrofuran-3-yl)spiro[3.3]heptane-2-carboxamide] | – | – | 5.8 µM | 5.8 µM | 1.4 µM | 39.8 µM
3 | COc1ccc(CNC(=O)NC2CC3(C2)CC(NC(=O)OC(C)(C)C)C3)cc1 (centres unmarked) [Compound 7, tert-butyl (6-(3-(4-methoxybenzyl)ureido)spiro[3.3]heptan-2-yl)carbamate] | – | – | 2.4 µM | 4.7 µM | 5.1 µM | 26.3 µM
4 | NC(=O)c1ccc(CNC(=O)NC2CC3(C2)CC(NC(=O)c2ccccc2)C3)cc1 (centres unmarked) [Compound 14, N-(6-(3-(4-carbamoylbenzyl)ureido)spiro[3.3]heptan-2-yl)benzamide] | – | – | >20.1 µM | ≥ 20.1 µM | 2.7 µM | 35.3 µM
5 | O=C(NCCCCC1CCN(C(=O)c2ccccc2)CC1)NCc1ccc(Cl)cc1 [Compound 16, 1-(4-(1-benzoylpiperidin-4-yl)butyl)-3-(4-chlorobenzyl)urea] | 0.1 µM | 0.3 µM | 0.1 µM | – | 0.1 µM | –
6 | NC(=O)c1ccc(CNC(=O)NCCCCC2CCN(C(=O)c3ccccc3)CC2)cc1 [Compound 19, 4-((3-(4-(1-benzoylpiperidin-4-yl)butyl)ureido)methyl)benzamide] | – | – | 1.6 µM | 1.3 µM | 0.1 µM | 1.8 µM
7 | COc1ccc(CNC(=O)NCCCCC2CCN(C(=O)c3ccccc3)CC2)cc1 [Compound 20, 1-(4-(1-benzoylpiperidin-4-yl)butyl)-3-(4-methoxybenzyl)urea] | – | – | 0.4 µM | 13.9 µM | 0.2 µM | 4.7 µM
8 | O=C(NCCCCC1CCN(C(=O)c2ccccc2)CC1)NCc1ccc(CO)cc1 [Compound 22, 1-(4-(1-benzoylpiperidin-4-yl)butyl)-3-(4-(hydroxymethyl)benzyl)urea] | – | – | 0.4 µM | 0.1 µM | 0.1 µM | 1.1 µM
9 | O=C(NCCCCC1CCN(C(=O)c2ccccc2)CC1)NCc1cnco1 [Compound 23, 1-(4-(1-benzoylpiperidin-4-yl)butyl)-3-(oxazol-5-ylmethyl)urea] | – | – | 0.3 µM | 0.3 µM | 0.1 µM | 1.4 µM
10 | CC(C)(C)OC(=O)N1CCC2(CC1)CC2CNC(=O)NCc1ccc(Cl)cc1 (centres unmarked) [Compound 27, tert-butyl 1-((3-(4-chlorobenzyl)ureido)methyl)-6-azaspiro[2.5]octane-6-carboxylate] | 5.8 µM | 21.5 µM | – | – | – | –
11 | CC(C)(C)OC(=O)N1CCC2(CC1)CC2CNC(=O)NCc1ccc(CO)cc1 (centres unmarked) [Compound 29, tert-butyl 1-((3-(4-(hydroxymethyl)benzyl)ureido)methyl)-6-azaspiro[2.5]octane-6-carboxylate] | – | – | – | 2.2 µM | – | 26.7 µM
12 | CC(C)(C)OC(=O)N1CCC2(CC1)CC2CNC(=O)NCc1ccc(C(N)=O)cc1 (centres unmarked) [Compound 33, tert-butyl 1-((3-(4-carbamoylbenzyl)ureido)methyl)-6-azaspiro[2.5]octane-6-carboxylate] | – | – | – | 8.4 µM | – | 19.8 µM
13 | COc1ccc(CNC(=O)NC2CC3(C2)CC(C(=O)N2CCCc4ccccc42)C3)cc1 (centres unmarked) [Compound 71, 1-(4-methoxybenzyl)-3-(6-(1,2,3,4-tetrahydroquinoline-1-carbonyl)spiro[3.3]heptan-2-yl)urea] | – | – | 0.3 µM | 0.9 µM | 0.1 µM | 1.5 µM
14 | COc1ccc(CNC(=O)NC2CC3(C2)CC(C(=O)N2Cc4ccccc4C2)C3)cc1 (centres unmarked) [Compound 73, 1-(6-(isoindoline-2-carbonyl)spiro[3.3]heptan-2-yl)-3-(4-methoxybenzyl)urea] | – | – | 0.8 µM | 0.8 µM | 1.2 µM | 7.7 µM
15 | COc1ccc(CNC(=O)NC2CC3(C2)CC(C(=O)N2CCc4ccccc42)C3)cc1 (centres unmarked) [Compound 74, 1-(6-(indoline-1-carbonyl)spiro[3.3]heptan-2-yl)-3-(4-methoxybenzyl)urea] | – | – | 0.3 µM | 0.5 µM | 0.8 µM | 13.3 µM
16 | COc1ccc(CNC(=O)NC2CC3(C2)CC(C(=O)N2CCN(CC(C)(C)O)CC2)C3)cc1 (centres unmarked) [Compound 76, 1-(6-(4-(2-hydroxy-2-methylpropyl)piperazine-1-carbonyl)spiro[3.3]heptan-2-yl)-3-(4-methoxybenzyl)urea] | – | – | 5.9 µM | 4.7 µM | 0.7 µM | 17.8 µM
17 | COc1ccc(CNC(=O)NC2CC3(C2)CC(C(=O)N2CCCc4cc(C)ccc42)C3)cc1 (centres unmarked) [Compound 84, 1-(4-methoxybenzyl)-3-(6-(6-methyl-1,2,3,4-tetrahydroquinoline-1-carbonyl)spiro[3.3]heptan-2-yl)urea] | – | – | 5.3 µM | 12.7 µM | 0.1 µM | 2.8 µM
18 | COc1ccc(CNC(=O)NC2CC3(C2)CC(C(=O)N2CCOc4ccccc42)C3)cc1 (centres unmarked) [Compound 85, 1-(6-(3,4-dihydro-2H-benzo[b][1,4]oxazine-4-carbonyl)spiro[3.3]heptan-2-yl)-3-(4-methoxybenzyl)urea] | – | – | 0.9 µM | 0.8 µM | 0.1 µM | 1.6 µM
19 | COc1ccc(CNC(=O)NC2CC3(C2)CC(C(=O)N(C)c2ccccc2)C3)cc1 (centres unmarked) [Compound 87, 6-(3-(4-methoxybenzyl)ureido)-N-methyl-N-phenylspiro[3.3]heptane-2-carboxamide] | – | – | 3.4 µM | 2.4 µM | 0.6 µM | 27.4 µM
20 | COc1ccc(CNC(=O)NC2CC3(C2)CC(C(=O)N2CCCc4cnccc42)C3)cc1 (centres unmarked) [Compound 90, 1-(4-methoxybenzyl)-3-(6-(1,2,3,4-tetrahydro-1,6-naphthyridine-1-carbonyl)spiro[3.3]heptan-2-yl)urea] | – | – | 0.9 µM | 0.8 µM | 0.3 µM | 5.1 µM
21 | CC(C)(O)CN1CCN(C(=O)C2CC3(CC(NC(=O)NCc4ccc(Cl)cc4)C3)C2)CC1 (centres unmarked) [Compound 110] | 0.3 µM | 3.9 µM | 0.5 µM | – | 0.7 µM | –
22 | O=C(NCc1ccc(Cl)cc1)NC1CC2(C1)CC(NS(=O)(=O)Cc1ccccc1Cl)C2 (centres unmarked) [Compound 120, N-(6-(3-(4-chlorobenzyl)ureido)spiro[3.3]heptan-2-yl)-1-(2-chlorophenyl)methanesulfonamide] | – | – | 0.2 µM | 0.3 µM | 0.5 µM | 2.6 µM
23 | O=C(NCc1ccc(Cl)cc1)NC1CC2(C1)CC(NS(=O)(=O)c1ccccc1)C2 (centres unmarked) [Compound 121] | 1.2 µM | 5.7 µM | 0.6 µM | – | 1.5 µM | –
24 | COc1ccc(CNC(=O)NC2CC3(CC(Cn4ncc5ccccc54)C3)C2)cc1 (centres unmarked) [Compound 134] | – | – | 8.0 µM | 12.7 µM | 0.6 µM | 7.2 µM
25 | COc1ccc(CNC(=O)NC2CC3(C2)CC(OCc2cccnc2)C3)cc1 (centres unmarked) [Compound 351, 1-(4-methoxybenzyl)-3-(6-(pyridin-3-ylmethoxy)spiro[3.3]heptan-2-yl)urea] | – | – | – | – | 4.0 µM | 38.7 µM
26 | O=C(NCc1ccc(Cl)cc1)NC1CC2(CC(CS(=O)(=O)c3ccccc3)C2)C1 (centres unmarked) [Compound 352, 1-(4-chlorobenzyl)-3-(6-((phenylsulfonyl)methyl)spiro[3.3]heptan-2-yl)urea] | – | – | – | – | 6.0 µM | 8 µM
27 | O=C(NCc1ccc(Cl)cc1)NC1CC2(CC(CS(=O)(=O)c3cccnc3)C2)C1 (centres unmarked) [Compound 353, 1-(4-chlorobenzyl)-3-(6-((pyridin-3-ylsulfonyl)methyl)spiro[3.3]heptan-2-yl)urea] | – | – | – | – | 5.3 µM | 16.9 µM
28 | O=C(NCc1ccc(Cl)cc1)N[C@H]1C[C@]2(CCN(C(=O)N3CCC(N4CCCCC4)CC3)C2)C1 [Compound 354, 1-((2r,4s)-6-([1,4′-bipiperidine]-1′-carbonyl)-6-azaspiro[3.4]octan-2-yl)-3-(4-chlorobenzyl)urea] | – | – | – | – | 4.2 µM | –

Source: patent publication US20230348369A1 (Cytokinetics, Inc., priority 2020, published 2023)
